Measurements: US7494980B2, “Antimicrobial peptide and methods of use thereof” (The United States of America as represented by the …, priority 2003, dated 2009)
Ends that are not written are not given here.

Assays:
[1] = test system: S. gordonii DL1; experiment: In vitro susceptibility (broth microdilution MIC, MBC by spiral-plating); assay type: cell-based, Streptococcus gordonii; conditions: 24-48 h
Text: (§1) Strains used in Examples 3-6 included ATCC and laboratory strains of different oral bacteria. These included: Actinomyces naeslundii strain T14V-J1, Actinomyces israelii ATCC 10049, Streptococcus mutans strains LT 11 and ATCC 25175, Streptococcus sobrinus ATCC 33478, Streptococcus gordonii strains DL1 and ATCC 51656, Streptococcus sanguis strains SK36 and ATCC 10556, Streptococcus salivarius ATCC 9222, Streptococcus oralis strains 34 and ATCC 35037, Lactobacillus salivarius ATCC 29602, Lactobacillus acidophilus ATCC 4357, and Actinobacillus actinomycetemcomitans ATCC 43718. S. mutans strain LT 11 was kindly provided by Lin Tao, University of Illinois at Chicago, Ill. S. gordonii DLI, S. sanguis SK36, and S. oralis 34 were provided by John Cisar, National Institute of Dental and Craniofacial Research, NIH, Bethesda, Md.
(§2) Todd-Hewitt broth (THB), brain heart infusion (BHI) broth, Todd-Hewitt agar (THA), trypticase soy agar (TSA), lactobacilli MRS (MRS) broth, Actinomyces broth and Mueller-Hinton broth (MHB) were purchased from Becton Dickinson. Blood agar plates (BAP) were prepared by supplementing TSA with 5% sheep blood (PML Microbiologicals). All cultures, except for Actinobacillus actinomycetemcomitans, S. mitis and Actinomyces israelii, were grown at 37° C. in room air. Actinobacillus actinomycetemcomitans cultures were grown on BAP or in MHB supplemented with 15 μg haemin ml^−1 (Sigma), 15 μg β-nicotinamide adenine dinucleotide (NAD) ml^−1 (Sigma) and 5% yeast extract (Becton Dickinson) at 37° C. in 5% CO2. S. mitis was grown on BAP or in BHI broth at 37° C. in 5% CO2. Actinomyces israeilli was grown anaerobically in an anaerobic chamber (Coy Laboratory Products) in a 5% CO2/10% H2/85% N2 atmosphere.
(§3) MICs were determined as described by Fuchs et al. (1998) with a slight modification. Procedures were based on the National Committee for Clinical Laboratory Standards broth microdilution method. MHB was used as the main assay medium for most of the tested organisms. Freshly grown cultures at exponential phase were used as the inoculum. Bacteria were centrifuged at 4000 r.p.m. for 15 min at 4° C., suspended in 2× concentrated medium and adjusted to 4×106 c.f.u ml−1 in 2× concentrated medium. Aqueous peptide solution (100 μl) was added to each well of a 96-well, flat-bottomed plate (Becton Dickinson). […] The MIC was defined as the lowest concentration of the peptide that prevented visible turbidity, as measured at 600 nm by using an ELISA reader (Titertek Multiskan MCC/340). […] Minimum bactericidal concentrations (MBCs) were determined by spiral-plating (Spiral Plater Autoplate 4000; Spiral Biotech) 50 μl from each clear well (≧MIC) onto BAP.

[2] = test system: S. gordonii ATCC 51656; experiment: as above; assay type: cell-based, Streptococcus gordonii; conditions: 24-48 h
Text: as §1, §2, §3

[3] = test system: S. sanguis ATCC 10556; experiment: as above; assay type: cell-based, Streptococcus sanguis; conditions: 24-48 h
Text: as §1, §2, §3

[4] = test system: S. sanguis SK36; experiment: as above; assay type: cell-based, Streptococcus sanguis; conditions: 24-48 h
Text: as §1, §2, §3

[5] = test system: L. acidophilus ATCC 4357; experiment: as above; assay type: cell-based, Lactobacillus acidophilus
Text: as §1
as §2, with “Actinomyces israeilli was grown anaerobically in an anaerobic chamber (Coy Laboratory Products) in a 5% CO2/10% H2/85% N2 atmosphere.” left out
(§4) MICs were determined as described by Fuchs et al. (1998) with a slight modification. […] The MIC was defined as the lowest concentration of the peptide that prevented visible turbidity, as measured at 600 nm by using an ELISA reader (Titertek Multiskan MCC/340). […] Minimum bactericidal concentrations (MBCs) were determined by spiral-plating (Spiral Plater Autoplate 4000; Spiral Biotech) 50 μl from each clear well (≧MIC) onto BAP.

[6] = test system: S. mutans ATCC 25175; experiment: as above; assay type: cell-based, Streptococcus mutans
Text: as §1
as §2, with “Actinomyces israeilli was grown anaerobically in an anaerobic chamber (Coy Laboratory Products) in a 5% CO2/10% H2/85% N2 atmosphere.” left out
as §4

[7] = test system: S. mutans ATCC 25175; experiment: Bactericidal assay (log reduction in viable counts); assay type: cell-based, Streptococcus mutans
Text: as §1
(§5) The bactericidal assay was performed according to procedures described by Miyasaki et al. (1997, 1998) with a slight modification. […] Susceptibility was determined by examining the log reduction in viability counts of organisms that had been exposed to different concentrations of KSL. […] Bactericidal activity was also expressed as the 99% effective dose (ED99), which is the concentration of the antimicrobial decapeptide at which there is a 2-log or more reduction in c.f.u. […]
(§6) In addition to the determinations of MICs and MBCs of KSL, log reductions in viable counts of selected oral bacteria caused by KSL were also determined. […] With the exception of Actinobacillus actinomycetemcomitans, for which the assays were performed in 0.01% BHI, bactericidal action of KSL was determined in isotonic HBSS after incubation with the targeted bacteria for 1 h at 37° C. KSL at 6.25 μg ml^−1, which was determined to be the 99% effective dose (ED99), caused more than 2 log reductions in viable counts of the organisms tested, which included L. salivarius ATCC 29602 (FIG. 3a), S. mutans ATCC 25175^T (FIG. 3b), S. gordonii ATCC 51656 (FIG. 3c), and Actinobacillus actinomycetemcomitans ATCC 43718 (FIG. 3d).

[8] = test system: L. salivarius ATCC 29602; experiment: In vitro susceptibility (broth microdilution MIC, MBC by spiral-plating); assay type: cell-based, Lactobacillus salivarius; conditions: 24-48 h
Text: as §1, with “Md. […]” for “Md.”
as §4

[9] = test system: S. sobrinus ATCC 33478; experiment: as above; assay type: cell-based, Streptococcus sobrinus
Text: as §1
as §2, with “Actinomyces israeilli was grown anaerobically in an anaerobic chamber (Coy Laboratory Products) in a 5% CO2/10% H2/85% N2 atmosphere.” left out
as §4

[10] = test system: saliva bacteria (facultative anaerobic oral bacteria collected from saliva); experiment: In vitro killing of saliva bacteria; assay type: cell-based; conditions: 200 μg KSL ml^−1, 30 min at 37° C., vs PBS
Procedure: The killing assay of saliva bacteria was done according to procedures established by Helmerhorst et al. (1999). Unstimulated saliva was collected from four healthy individuals who had refrained from eating for at least 2 hours. The study was approved by the Institutional Review Board of the Walter Reed Army Institute of Research and informed consent and sample donation consent were obtained from all volunteers. Pooled saliva was initially spun at 500 r.p.m. in an Eppendorf centrifuge (model 5810R) for 10 min at 4° C. to remove epithelial cells and mucus. Saliva bacteria were collected by spinning the supernatant at 4000 r.p.m. for 15 min at 4° C. The pellet was washed three times in 10 mM potassium phosphate buffer (PPB) and suspended in the same buffer to give approximately 1.0×10^7 cells ml^−1. Bacterial suspension (250 μl) was mixed with 250 μl peptide to obtain final peptide concentrations of 12.5, 25, 50, 100 and 200 μg ml^−1. After incubation of the mixture at 37° C. for 30 min, cells were spun down to remove KSL, washed once in PBS having a pH of 7.4 and suspended in PBS before spiral-plating 50 μl of the treated and untreated cells in different dilutions on BAP. The negative control was exposed to buffer only. Saliva bacteria exposed to 0.12% aqueous chlorhexidine served as positive controls. […]

[11] = test system: S. mitis ATCC; experiment: In vitro susceptibility (broth microdilution MIC, MBC by spiral-plating); assay type: cell-based; conditions: 24-48 h
Text: as §1, §2
(§7) MICs were determined as described by Fuchs et al. (1998) with a slight modification. Procedures were based on the National Committee for Clinical Laboratory Standards broth microdilution method. MHB was used as the main assay medium for most of the tested organisms. Freshly grown cultures at exponential phase were used as the inoculum. Bacteria were centrifuged at 4000 r.p.m. for 15 min at 4° C., suspended in 2× concentrated medium and adjusted to 4×106 c.f.u ml−1 in 2× concentrated medium. Aqueous peptide solution (100 μl) was added to each well of a 96-well, flat-bottomed plate (Becton Dickinson). The peptide solution was serially diluted (twofold) with sterile distilled water in the wells, with final peptide concentrations ranging from 3.13 to 200 μg ml−1. After dispensing 100 μl aliquots of bacterial suspension into the wells, the 96-well plates were incubated at 37° C. for 24-48 h in room air, CO2 or anaerobically. The MIC was defined as the lowest concentration of the peptide that prevented visible turbidity, as measured at 600 nm by using an ELISA reader (Titertek Multiskan MCC/340). […] Minimum bactericidal concentrations (MBCs) were determined by spiral-plating (Spiral Plater Autoplate 4000; Spiral Biotech) 50 μl from each clear well (≧MIC) onto BAP.

[12] = test system: Actinomyces naeslundii T14V-J1; experiment: as above; assay type: cell-based; conditions: 24-48 h
Text: as §1, §2, §7

[13] = test system: Actinomyces israelii ATCC 10049; experiment: as above; assay type: cell-based; conditions: 24-48 h
Text: as §1, §2, §7

[14] = test system: Actinobacillus actinomycetemcomitans ATCC 43718; experiment: Bactericidal assay (log reduction in viable counts); assay type: cell-based
Text: as §1, §5, §6

[15] = test system: S. oralis ATCC 35037; experiment: In vitro susceptibility (broth microdilution MIC, MBC by spiral-plating); assay type: cell-based, Streptococcus oralis; conditions: 24-48 h
Text: as §1, with “Md. […]” for “Md.”
as §4

[16] = test system: S salivarius ATCC 9222; experiment: as above; assay type: cell-based, Streptococcus salivarius; conditions: 24-48 h
Text: as §1, with “Md. […]” for “Md.”
as §4

[17] = test system: S. gordonii ATCC 51656; experiment: Bactericidal assay (log reduction in viable counts); assay type: cell-based, Streptococcus gordonii
Text: as §1, §5, §6

[18] = test system: S. mutans LT11; experiment: In vitro susceptibility (broth microdilution MIC, MBC by spiral-plating); assay type: cell-based, Streptococcus mutans; conditions: 4 × 10^7 cells ml^−1, 24-48 h
Text: as §1, with “Md. […]” for “Md.”
as §4

[19] = test system: L. salivarius ATCC 29602; experiment: Bactericidal assay (log reduction in viable counts); assay type: cell-based, Lactobacillus salivarius
Text: as §1, §5, §6

[20] = test system: Actinobacillus actinomycetemcomitans ATCC 43718; experiment: In vitro susceptibility (broth microdilution MIC, MBC by spiral-plating); assay type: cell-based; conditions: 4 × 10^7 cells ml^−1, 24-48 h
Text: as §1, with “Md. […]” for “Md.”
as §4

[21] = MHB, 4 × 10^6 cells ml^−1, 37° C.
[22] = clear MIC wells plated on BAP, 24-48 h
[23] = MHB, 4 × 10^6 cells ml^−1, 37° C., 24-48 h

KKVVFKVKFK-NH2 [KSL, lys-lys-val-val-phe-lys-val-lys-phe-lys]
3.13 µg/mL: MIC ([5]; 10% MRS, 4 × 10^6 cells ml^−1, 37° C., 24-48 h) | MIC ([8]; 10% MRS, 4 × 10^6 cells ml^−1, 37° C.) | MIC ([12]; MHB or modified broth, 4 × 10^6 cells ml^−1, 37° C.)
100 µg/mL: MBC ([1]; clear MIC wells plated on BAP) | MBC ([2]; clear MIC wells plated on BAP) | MBC ([3]; clear MIC wells plated on BAP) | MIC [15, 21] | MBC ([16]; clear MIC wells plated on BAP) | MBC ([18]; clear MIC wells plated on BAP) | MIC ([20]; 50% BHI, 5% CO2, 37° C.)
1.05 log: log reduction in facultative anaerobes in saliva [10]
25 µg/mL: MIC [3, 21] | MIC [4, 21] | MIC [9, 23] | MIC ([11]; BHI, 5% CO2, 4 × 10^6 cells ml^−1, 37° C.) | MIC ([18]; MHB, 37° C.)
> 3 logs: reduction in viability ([7]; concentrations of <10 μg ml^−1) | reduction in viability ([14]; concentrations of <10 μg ml^−1) | reduction in viability ([17]; concentrations of <10 μg ml^−1) | reduction in viability ([19]; concentrations of <10 μg ml^−1)
more than 2 log: log reduction in viable counts ([7]; 6.25 μg ml^−1, HBSS, FIG. 3b) | log reduction in viable counts ([14]; 6.25 μg ml^−1, 0.01% BHI, FIG. 3d) | log reduction in viable counts ([17]; 6.25 μg ml^−1, HBSS, FIG. 3c) | log reduction in viable counts ([19]; 6.25 μg ml^−1, HBSS, FIG. 3a)
50 µg/mL: MIC [1, 21] | MIC [2, 21] | MBC ([4]; clear MIC wells plated on BAP) | MBC [9, 22] | MBC ([11]; clear MIC wells plated on BAP) | MIC [16, 21]
200 µg/mL: MBC ([15]; clear MIC wells plated on BAP) | MBC ([20]; clear MIC wells plated on BAP)
< 25 µg/mL: concentration inhibiting growth effectively [5] | concentration inhibiting growth effectively [6] | concentration inhibiting growth effectively [9]
6.25 µg/mL: MIC [6, 23] | ED99 (99% effective dose) ([7]; isotonic HBSS, 1 h at 37° C.) | MIC ([13]; 20% Actinomyces broth, anaerobic, 4 × 10^6 cells ml^−1, 37° C.) | ED99 (99% effective dose) ([14]; 0.01% BHI, 1 h at 37° C.) | ED99 (99% effective dose) ([17]; isotonic HBSS, 1 h at 37° C.) | ED99 (99% effective dose) ([19]; isotonic HBSS, 1 h at 37° C.)
12.5 µg/mL: MBC [5, 22] | MBC [6, 22] | MBC ([8]; clear MIC wells plated on BAP) | MBC ([12]; clear MIC wells plated on BAP) | MBC ([13]; clear MIC wells plated on BAP)
